From PubChem BioAssay AID328 (DTP/NCI, 2004) come the findings set out here.

Where “and” joins values, the source holds several entries; their conditions need not be identical. Equal entries are not always repeated. Toxic doses and inconclusive results are not listed.

The assay concerns BDF1 mice, P388 leukemia ip, median survival T/C. Put plainly: NCI In Vivo Anticancer Drug Screen. Data for tumor model P388 Leukemia (intraperitoneal) in B6D2F1 (BDF1) mice. Particulars: endpoint: median survival time, higher = longer survival. The gist of the method: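 Antitumour effect was judged in vivo: survival in drug-treated mice, normalised to that of vehicle-dosed controls, gives the reported T/C.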

The mark [1] stands for this setting: dose: 25.0 mg/kg/injection, schedule: Q01DX009 (ip), vehicle: Klucel (hydroxypropylcellulose) (HPC).
Where [2] appears, read: dose: 50.0 mg/kg/injection, schedule: Q01DX009 (ip), vehicle: saline with Tween-80.
Where [3] appears, read: dose: 75.0 mg/kg/injection, schedule: Q01DX009 (ip), vehicle: saline with Tween-80.
Setting [4] is: dose: 100.0 mg/kg/injection, schedule: Q01DX009 (ip), vehicle: saline with Tween-80.
The mark [5] stands for this setting: dose: 100.0 mg/kg/injection, schedule: Q01DX001 (ip), vehicle: Klucel (hydroxypropylcellulose) (HPC).
Setting [6] is: dose: 100.0 mg/kg/injection, schedule: Q04DX003 (ip), vehicle: Klucel (hydroxypropylcellulose) (HPC).
Setting [7] is: dose: 200.0 mg/kg/injection, schedule: Q01DX001 (ip), vehicle: Klucel (hydroxypropylcellulose) (HPC).
The mark [8] stands for this setting: dose: 200.0 mg/kg/injection, schedule: Q04DX003 (ip), vehicle: Klucel (hydroxypropylcellulose) (HPC).
Setting [9] is: dose: 400.0 mg/kg/injection, schedule: Q01DX001 (ip), vehicle: Klucel (hydroxypropylcellulose) (HPC).
Setting [10] is: dose: 400.0 mg/kg/injection, schedule: Q04DX003 (ip), vehicle: Klucel (hydroxypropylcellulose) (HPC).
[11] abbreviates: dose: 100.0 mg/kg/injection, schedule: Q04DX003 (ip), vehicle: saline with Tween-80.
Setting [12] is: dose: 200.0 mg/kg/injection, schedule: Q04DX003 (ip), vehicle: saline with Tween-80.
[13] abbreviates: dose: 400.0 mg/kg/injection, schedule: Q04DX003 (ip), vehicle: saline with Tween-80.
Setting [14] is: dose: 200.0 mg/kg/injection, schedule: Q01DX009 (ip), vehicle: saline with Tween-80.
Setting [15] is: dose: 400.0 mg/kg/injection, schedule: Q01DX009 (ip), vehicle: saline with Tween-80.
The mark [16] stands for this setting: dose: 50.0 mg/kg/injection, schedule: Q01DX009 (ip), vehicle: saline.
The mark [17] stands for this setting: dose: 50.0 mg/kg/injection, schedule: Q04DX003 (ip), vehicle: Klucel (hydroxypropylcellulose) (HPC).

For the compound `CCc1ccc(/C=C/c2ccc(O)c3ncccc23)[n+](C)c1`, the T/C reads like this: (dose: 0.74 mg/kg/injection, schedule: Q01DX009 (ip), vehicle: saline) 100 % of control; (dose: 1.1 mg/kg/injection, schedule: Q01DX009 (ip), vehicle: saline) 109 % of control; (dose: 1.7 mg/kg/injection, schedule: Q01DX009 (ip), vehicle: Klucel (hydroxypropylcellulose) (HPC)) 108 % of control; (dose: 1.7 mg/kg/injection, schedule: Q01DX009 (ip), vehicle: saline) 150 % of control; (dose: 2.6 mg/kg/injection, schedule: Q01DX009 (ip), vehicle: saline) 160 % of control; (dose: 4.1 mg/kg/injection, schedule: Q01DX009 (ip), vehicle: Klucel (hydroxypropylcellulose) (HPC)) 122 % of control. For the same compound, the T/C (dose: 8.0 mg/kg/injection, schedule: Q01DX009 (ip), vehicle: Klucel (hydroxypropylcellulose) (HPC)) is 150 % of control; the T/C (dose: 8.0 mg/kg/injection, schedule: Q01DX009 (ip), vehicle: saline with Tween-80) was 170 % of control; the T/C (dose: 8.0 mg/kg/injection, schedule: Q04DX003 (ip), vehicle: saline) is 122 % of control; the T/C (dose: 10.56 mg/kg/injection, schedule: Q01DX009 (ip), vehicle: saline with Tween-80) was 154 % of control; the T/C (dose: 16.0 mg/kg/injection, schedule: Q01DX009 (ip), vehicle: Klucel (hydroxypropylcellulose) (HPC)) was 170 % of control; the T/C (dose: 16.0 mg/kg/injection, schedule: Q01DX009 (ip), vehicle: saline with Tween-80) was 159 % of control and 179 % of control. Besides, the T/C runs as follows: (dose: 16.5 mg/kg/injection, schedule: Q01DX009 (ip), vehicle: Klucel (hydroxypropylcellulose) (HPC)) 160 % of control and 166 % of control; (dose: 24.0 mg/kg/injection, schedule: Q01DX009 (ip), vehicle: saline with Tween-80) 158 % of control; under setting [1], 171 % of control and 185 % of control; (dose: 32.0 mg/kg/injection, schedule: Q01DX009 (ip), vehicle: saline with Tween-80) 179 % of control.
On to `[CH3][Hg][Cl]`, for which the T/C is 109 % of control (dose: 0.25 mg/kg/injection, schedule: Q01DX009 (ip), vehicle: saline); 100 % of control (dose: 0.5 mg/kg/injection, schedule: Q01DX009 (ip), vehicle: saline); 100 % of control (dose: 1.0 mg/kg/injection, schedule: Q01DX009 (ip), vehicle: saline).
With `NC(=S)N/N=C/c1cc(-c2cccc(N)c2)ccn1`, the T/C is, setting by setting: (dose: 12.5 mg/kg/injection, schedule: Q01DX009 (ip), vehicle: saline with Tween-80) 154 % of control; (dose: 25.0 mg/kg/injection, schedule: Q01DX009 (ip), vehicle: saline with Tween-80) 162 % of control; under setting [2], 211 % of control; under setting [3], 178 % of control.
Consider `CS(=O)/C=C(\c1ccccc1)c1cccs1` (stereo not given), for which the T/C is, setting by setting: under setting [2], 96 % of control; under setting [4], 100 % of control.
As to `O=[N+]([O-])c1ccc(S(=O)c2ccccc2)c2c1no[n+]2[O-]` (stereo not given), the T/C reads like this: (dose: 22.5 mg/kg/injection, schedule: Q01DX009 (ip), vehicle: saline with Tween-80) 92 % of control; (dose: 45.0 mg/kg/injection, schedule: Q01DX009 (ip), vehicle: saline with Tween-80) 93 % of control.
Consider `Cc1noc(/N=C/c2ccccc2)c1C`, for which the T/C under setting [5] is 108 % of control; the T/C under setting [6] was 95 % of control; the T/C under setting [7] was 104 % of control; the T/C under setting [8] was 100 % of control and 104 % of control; the T/C under setting [9] is 112 % of control; the T/C under setting [10] is 91 % of control and 100 % of control.
`CC1(CCC(=O)/C=C/c2ccccc2)CCC/C(=C/c2ccccc2)C1=O` (stereo not given): the T/C was 110 % of control (dose: 12.5 mg/kg/injection, schedule: Q01DX009 (ip), vehicle: Klucel (hydroxypropylcellulose) (HPC)); 115 % of control under setting [1]; 110 % of control (dose: 50.0 mg/kg/injection, schedule: Q01DX009 (ip), vehicle: Klucel (hydroxypropylcellulose) (HPC)); 100 % of control (dose: 75.0 mg/kg/injection, schedule: Q01DX009 (ip), vehicle: Klucel (hydroxypropylcellulose) (HPC)); 100 % of control (dose: 115.0 mg/kg/injection, schedule: Q01DX009 (ip), vehicle: Klucel (hydroxypropylcellulose) (HPC)); 95 % of control (dose: 170.0 mg/kg/injection, schedule: Q01DX009 (ip), vehicle: Klucel (hydroxypropylcellulose) (HPC)).
Take `Cn1ccoc1=NC1CCCCC1`: the T/C was 100 % of control (dose: 50.0 mg/kg/injection, schedule: Q04DX003 (ip), vehicle: saline with Tween-80); 100 % of control under setting [11]; 109 % of control under setting [12].
Turning to `O=C1C(=C(C(F)(F)F)C(F)(F)F)CCc2ccc([N+](=O)[O-])cc21`, the T/C under setting [11] is 110 % of control and the T/C under setting [13] was 110 % of control.
Take `Clc1ccc(COC(Cn2ccnc2)c2ccc(Cl)cc2Cl)c(Cl)c1` (stereo not given): the T/C runs as follows: (dose: 18.7 mg/kg/injection, schedule: Q01DX009 (ip), vehicle: saline with Tween-80) 118 % of control; under setting [3], 118 % of control; under setting [14], 108 % of control; under setting [15], 108 % of control.
For `CC(C)C(=O)c1ccc([N+](=O)[O-])o1`, the T/C under setting [2] was 115 % of control; the T/C under setting [4] is 111 % of control; the T/C under setting [11] is 107 % of control; the T/C under setting [14] is 109 % of control; the T/C under setting [12] was 116 % of control; the T/C under setting [15] is 107 % of control. Further, the T/C under setting [13] was 109 % of control.
In the case of `COc1cc(NC(C)CCCN)c2nccc(C)c2c1` (stereo not given), the T/C (dose: 12.5 mg/kg/injection, schedule: Q01DX009 (ip), vehicle: saline) is 101 % of control; the T/C (dose: 25.0 mg/kg/injection, schedule: Q01DX009 (ip), vehicle: saline) is 101 % of control; the T/C under setting [16] is 90 % of control and 107 % of control; the T/C (dose: 100.0 mg/kg/injection, schedule: Q01DX009 (ip), vehicle: saline) was 88 % of control.
As for `N=C(N)c1ccc(N=C(N)Nc2ccc(C(=N)N)cc2)cc1`, the T/C under setting [16] is 118 % of control.
In the case of `CC(=O)Nc1ccc(NC(=O)NCCCl)cc1`, the T/C by setting is: under setting [17], 110 % of control; (dose: 59.0 mg/kg/injection, schedule: Q01DX009 (ip), vehicle: Klucel (hydroxypropylcellulose) (HPC)) 100 % of control; (dose: 88.0 mg/kg/injection, schedule: Q01DX009 (ip), vehicle: Klucel (hydroxypropylcellulose) (HPC)) 100 % of control; under setting [6], 110 % of control; (dose: 133.0 mg/kg/injection, schedule: Q01DX009 (ip), vehicle: Klucel (hydroxypropylcellulose) (HPC)) 115 % of control; (dose: 133.0 mg/kg/injection, schedule: Q04DX003 (ip), vehicle: Klucel (hydroxypropylcellulose) (HPC)) 90 % of control and 100 % of control. Also, the T/C by setting is: under setting [8], 90 % of control and 100 % of control; (dose: 300.0 mg/kg/injection, schedule: Q04DX003 (ip), vehicle: Klucel (hydroxypropylcellulose) (HPC)) 90 % of control.
With `Cc1ccc(OCC(O)CN2CCN(c3ccc(Cl)cc3)CC2)cc1` (stereo not given), the T/C reads like this: (dose: 100.0 mg/kg/injection, schedule: Q04DX003 (ip), vehicle: saline sonified) 100 % of control; (dose: 200.0 mg/kg/injection, schedule: Q04DX003 (ip), vehicle: saline sonified) 100 % of control; (dose: 400.0 mg/kg/injection, schedule: Q04DX003 (ip), vehicle: saline sonified) 100 % of control.
As for `O=C(Cn1ccc(=O)[nH]c1=O)c1ccc([N+](=O)[O-])o1`, the T/C was 109 % of control (dose: 25.0 mg/kg/injection, schedule: Q04DX003 (ip), vehicle: saline) and 100 % of control (dose: 50.0 mg/kg/injection, schedule: Q04DX003 (ip), vehicle: saline).
As to `S=c1[nH]c2ccccc2s1`, the T/C reads like this: under setting [17], 109 % of control; under setting [5], 100 % of control; under setting [6], 100 % of control; under setting [7], 108 % of control; under setting [8], 100 % of control and 123 % of control; under setting [9], 100 % of control. Moreover, the T/C under setting [10] is 96 % of control.
